The text below walks through data of article PMC12951562, “SH2scan: Mapping SH2 Domain-Ligand Binding Selectivity for Inhibitors and Degraders” (Journal of Medicinal Chemistry, 2026).

Common to all, as to assay: biochemical
Format in all cases: binding

In assay [1] the target is T1, FRK (Homo sapiens, UniProt P42685).
T1 construct: the DNA-tagged SH2 domain concentrations used in this study were <0.1 nM; made in house; host or cells: HEK293 (transient transfection; unpurified extract)
To be noted: for remaining activity at 10 µM / percent of DMSO vehicle control at 10 µM: read-out: percent of DMSO vehicle control.

For assay [2], the target named is T2, GRB7 (Homo sapiens, UniProt Q14451).
T2 construct: the DNA-tagged SH2 domain concentrations used in this study were <0.1 nM; made in house; host or cells: HEK293 (transient transfection; unpurified extract)
The note with it: for remaining activity at 10 µM / percent of DMSO vehicle control at 10 µM: read-out: percent of DMSO vehicle control.

The target of assay [3] is T3, SH2D6 (Homo sapiens, UniProt Q7Z4S9).
T3 construct: made in house; host or cells: HEK293 (transient transfection), unpurified extract
To be noted: for remaining activity at 10 µM: read-out: percent of DMSO vehicle control.

The target in assay [4] is T4, SHF (Homo sapiens, UniProt Q7M4L6).
T4 construct: made in house; host or cells: HEK293 (transient transfection), unpurified extract
T4 sequence (Q7M4L6 1-423): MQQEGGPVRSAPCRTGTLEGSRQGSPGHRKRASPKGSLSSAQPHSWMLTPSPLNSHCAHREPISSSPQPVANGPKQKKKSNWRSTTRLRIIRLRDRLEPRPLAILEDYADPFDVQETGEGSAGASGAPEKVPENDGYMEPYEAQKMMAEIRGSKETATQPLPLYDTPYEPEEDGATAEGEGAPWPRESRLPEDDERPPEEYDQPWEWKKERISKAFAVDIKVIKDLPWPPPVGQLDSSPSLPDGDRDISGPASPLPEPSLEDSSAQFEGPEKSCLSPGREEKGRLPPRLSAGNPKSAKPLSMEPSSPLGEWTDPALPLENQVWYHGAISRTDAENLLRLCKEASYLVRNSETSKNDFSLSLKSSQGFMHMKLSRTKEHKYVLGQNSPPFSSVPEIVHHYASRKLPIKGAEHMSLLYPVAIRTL
The note with it: for remaining activity at 10 µM: read-out: percent of DMSO vehicle control.

Assay [5] concerns the target T5, SHIP1 (Homo sapiens, UniProt Q92835).
T5 construct: made in house; host or cells: HEK293 (transient transfection), unpurified extract
T5 sequence (Q92835 1-1189): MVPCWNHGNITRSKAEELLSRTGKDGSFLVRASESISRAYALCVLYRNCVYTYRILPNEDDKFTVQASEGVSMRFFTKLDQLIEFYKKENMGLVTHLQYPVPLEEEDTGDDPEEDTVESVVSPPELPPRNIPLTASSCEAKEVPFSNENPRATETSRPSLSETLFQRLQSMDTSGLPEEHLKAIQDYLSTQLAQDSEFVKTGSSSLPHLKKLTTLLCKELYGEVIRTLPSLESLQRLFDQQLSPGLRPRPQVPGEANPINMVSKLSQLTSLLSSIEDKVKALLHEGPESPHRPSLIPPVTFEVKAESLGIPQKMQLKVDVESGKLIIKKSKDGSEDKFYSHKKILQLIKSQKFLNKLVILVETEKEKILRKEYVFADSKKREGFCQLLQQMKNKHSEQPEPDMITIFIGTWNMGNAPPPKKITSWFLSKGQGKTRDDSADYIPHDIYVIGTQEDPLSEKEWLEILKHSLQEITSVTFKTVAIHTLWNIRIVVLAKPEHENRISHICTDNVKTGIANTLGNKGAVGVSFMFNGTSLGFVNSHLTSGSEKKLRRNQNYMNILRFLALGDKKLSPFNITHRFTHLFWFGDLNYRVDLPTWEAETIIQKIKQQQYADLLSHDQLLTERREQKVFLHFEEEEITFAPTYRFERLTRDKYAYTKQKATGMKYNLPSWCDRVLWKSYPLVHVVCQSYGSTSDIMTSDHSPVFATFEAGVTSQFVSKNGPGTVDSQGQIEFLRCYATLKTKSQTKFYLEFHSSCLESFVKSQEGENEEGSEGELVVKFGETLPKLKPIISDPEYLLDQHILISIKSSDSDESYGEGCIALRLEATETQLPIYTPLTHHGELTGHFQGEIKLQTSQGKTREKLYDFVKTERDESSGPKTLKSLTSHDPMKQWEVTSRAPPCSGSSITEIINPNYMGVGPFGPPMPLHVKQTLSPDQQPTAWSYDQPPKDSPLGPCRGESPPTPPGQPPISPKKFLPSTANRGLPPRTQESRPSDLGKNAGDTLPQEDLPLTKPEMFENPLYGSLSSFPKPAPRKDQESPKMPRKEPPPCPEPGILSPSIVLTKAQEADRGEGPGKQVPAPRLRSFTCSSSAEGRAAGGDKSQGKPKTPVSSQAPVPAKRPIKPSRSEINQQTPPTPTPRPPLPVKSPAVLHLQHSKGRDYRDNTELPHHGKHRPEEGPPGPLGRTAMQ
The note with it: for percent of DMSO vehicle control: primary screen, 10 μM.

The target in assay [6] is T6, SOCS6 (Homo sapiens, UniProt O14544).
T6 construct: made in house; host or cells: HEK293 (transient transfection), unpurified extract
T6 sequence (O14544 1-535): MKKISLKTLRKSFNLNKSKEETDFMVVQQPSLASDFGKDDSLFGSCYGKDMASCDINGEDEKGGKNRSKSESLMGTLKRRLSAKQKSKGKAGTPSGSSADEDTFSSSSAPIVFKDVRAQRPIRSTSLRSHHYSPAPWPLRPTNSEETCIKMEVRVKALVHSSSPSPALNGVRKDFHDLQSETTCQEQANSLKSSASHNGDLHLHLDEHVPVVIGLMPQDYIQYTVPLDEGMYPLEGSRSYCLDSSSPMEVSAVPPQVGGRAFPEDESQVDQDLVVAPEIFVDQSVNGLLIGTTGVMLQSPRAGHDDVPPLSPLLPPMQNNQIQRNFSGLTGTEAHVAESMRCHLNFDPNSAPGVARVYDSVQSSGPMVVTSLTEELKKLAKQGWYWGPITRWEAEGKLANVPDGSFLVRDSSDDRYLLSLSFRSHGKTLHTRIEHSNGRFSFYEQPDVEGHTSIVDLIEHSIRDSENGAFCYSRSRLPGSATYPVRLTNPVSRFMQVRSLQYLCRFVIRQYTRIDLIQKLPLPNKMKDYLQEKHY
The note with it: for remaining activity at 10 µM: read-out: percent of DMSO vehicle control.

Like-named read-outs stand apart in the source and are kept apart here. Non-standard residues stand in square brackets, D forms with d. Residues, ends and D or L forms follow the SMILES beside them. *: point of attachment. pY = N[C@@H](Cc1ccc(OP(=O)(O)O)cc1)C(=O)O; Caffeoyl = O=C(/C=C/c1ccc(O)c(O)c1)*

T2 sequence (Q14451 431-527 limits assumed): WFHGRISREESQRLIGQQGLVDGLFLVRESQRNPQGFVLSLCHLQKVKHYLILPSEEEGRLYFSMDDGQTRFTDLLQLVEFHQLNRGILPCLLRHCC
T3 sequence (Q7Z4S9 whole entry): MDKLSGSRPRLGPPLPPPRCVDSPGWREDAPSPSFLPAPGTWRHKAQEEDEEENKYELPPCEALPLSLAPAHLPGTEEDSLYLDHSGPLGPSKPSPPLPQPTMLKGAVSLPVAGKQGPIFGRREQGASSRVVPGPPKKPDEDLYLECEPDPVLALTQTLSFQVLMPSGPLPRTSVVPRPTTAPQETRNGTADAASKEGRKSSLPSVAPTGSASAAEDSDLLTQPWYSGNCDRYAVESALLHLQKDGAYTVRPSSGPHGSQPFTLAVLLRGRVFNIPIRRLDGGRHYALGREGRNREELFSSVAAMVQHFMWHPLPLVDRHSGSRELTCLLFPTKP
T1 sequence (P42685 116-208 limits assumed): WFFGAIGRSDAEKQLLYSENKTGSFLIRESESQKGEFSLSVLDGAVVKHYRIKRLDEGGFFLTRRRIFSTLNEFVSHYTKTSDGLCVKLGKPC

As for `C/C(=C\C(=O)N[C@H](C(=O)N1CCC[C@H]1C(=O)N(c1ccccc1)c1ccc(I)cc1)C(C)(C)C)c1ccc(OP(=O)(O)O)cc1` [STAT6-IN-1], the remaining activity at 10 µM in assay [1] (primary screen, 10 μM) worked out at 38.3 ± 5.9%; in assay [2] (primary screen, 10 μM), 47.7 ± 4.2%; in assay [3] (primary screen, 10 μM), 67.5 ± 5.3%; in assay [4] (primary screen, 10 μM), 43.6 ± 7.2%; in assay [6] (primary screen, 10 μM) it was 44.1 ± 2.1%. Further, the Kd (as a rule, the constant that tells how readily two partners part at equilibrium) in assay [5] (dose-response, read-out: KD) is 4.4 ± 0.42 µM. Moreover, the “percent of DMSO vehicle control” value in assay [5] was 4.4±1.3%.

On to `CC[C@H](C)[C@H](NC(=O)[C@H](CCC(=O)O)NC(=O)[C@H](CCC(=O)O)NC(=O)[C@H](Cc1ccc(OP(=O)(O)O)cc1)NC(=O)/C=C/c1ccc(O)c(O)c1)C(=O)N[C@@H](CCC(=O)O)C(=O)O` [Caffeic acid-pYEEIE] (Caffeoyl-[pY]EEIE-OH), for which the Kd in assay [1] is 0.0022 ± 0.00047 µM; in assay [2], 6.1 ± 0.32 µM; in assay [3] it was 14.5 ± 2.89 µM; in assay [4], 27.2 ± 8.88 µM; in assay [5], 5.8 ± 1.6 µM; in assay [6] it was 1.9 ± 0.24 µM. The percent of DMSO vehicle control at 10 µM is 0.1 ± 0.1% in assay [1] and 0.2 ± 0.1% in assay [2]. The remaining activity at 10 µM was found to be 36.4 ± 4.5% in assay [3], 50.6 ± 4.3% in assay [4] and 8.2 ± 0.1% in assay [6]. In addition, the “percent of DMSO vehicle control” value in assay [5] came out at 9.0±2.9%.

For `CC(=O)N1CC[C@H]2CC[C@@H](C(=O)N[C@@H](CCC(N)=O)C(=O)NC(c3ccccc3)c3ccccc3)N2C(=O)[C@@H](NC(=O)c2cc3cc(C(F)(F)P(=O)(O)O)ccc3[nH]2)C1` [SI-109], the percent of DMSO vehicle control at 10 µM in assay [1] is 151%; in assay [2], 135%. The remaining activity at 10 µM in assay [3] amounted to 96.9 ± 1.7%; in assay [4], 78.9 ± 3%; in assay [6] it was 91.9 ± 7.4%. In assay [5], the “percent of DMSO vehicle control” value is 101.8%.

For the compound `O=C(CCl)Nc1cccc(CNC(=O)[C@H](Cc2ccc(OP(=O)(O)O)cc2)NC(=O)Cc2ccc(F)cc2)c1` [MN551], the remaining activity at 10 µM turned out to be 69 ± 8.3% in assay [1] (primary screen, 10 μM); 71.3 ± 3.5% in assay [2] (primary screen, 10 μM); 93.6 ± 4.8% in assay [3] (primary screen, 10 μM); 103% in assay [4] (primary screen, 10 μM); 65.2 ± 0.1% in assay [6] (primary screen, 10 μM). For the same compound, the KD entry in assay [5] (dose-response) is “No Hit”. In assay [5], the “percent of DMSO vehicle control” value is 19.1%.

Consider `NC(=O)CC[C@H](NC(=O)[C@@H]1CC[C@@H]2CCN(C(=O)CCCCCC#Cc3cccc4c3CN(C3CCC(=O)NC3=O)C4=O)C[C@H](NC(=O)c3cc4cc(C(F)(F)P(=O)(O)O)ccc4[nH]3)C(=O)N21)C(=O)NC(c1ccccc1)c1ccccc1` (stereo partly drawn) [SD-36], for which the percent of DMSO vehicle control at 10 µM came out at 155 ± 4.5% in assay [1] and 66.9 ± 4.6% in assay [2]. Moreover, the remaining activity at 10 µM worked out at 99.6 ± 3.4% in assay [3], 100 ± 5.2% in assay [4] and 57.2 ± 3.4% in assay [6]. In addition, in assay [5], the “percent of DMSO vehicle control” value is given as 44.1±5.9%.

Take `CC(=O)N[C@@H](Cc1ccc(CP(=O)(O)O)cc1)C(=O)NC1(C(=O)N[C@@H](CC(N)=O)C(=O)NCCCc2c(O)ccc3ccccc23)CCCCC1` [CGP78850]: the percent of DMSO vehicle control at 10 µM in assay [1] came out at 89.4 ± 19.2%; in assay [2], 0%. In assay [2], binding was characterised by a dissociation constant (Kd) of 0.0052 µM. Moreover, the remaining activity at 10 µM was determined as 89.5 ± 8.4% in assay [3], 77.1 ± 2.6% in assay [4] and 63.3 ± 5.3% in assay [6]. Besides, the “percent of DMSO vehicle control” value in assay [5] was determined as 77.7±20.9%.

For `CC[C@H](C)[C@H](NC(=O)[C@H](CCC(=O)O)NC(=O)[C@H](CCC(=O)O)NC(=O)[C@H](Cc1ccc(OP(=O)(O)O)cc1)NC(C)=O)C(=O)N[C@@H](CCC(=O)O)C(N)=O` [Ac-pYEEIE-NH2] (Ac-[pY]EEIE-NH2), the “percent of DMSO vehicle control” value came out at 82.5% in assay [1] (primary screen, 10 μM); 123.8% in assay [2] (primary screen, 10 μM); 100.6% in assay [3] (primary screen, 10 μM); 60.2% in assay [4] (primary screen, 10 μM); 79.4±1.4% in assay [5]; 95.6±6.2% in assay [6] (primary screen, 10 μM).

For the compound `O=C(COc1ccc2cc(C(=O)Nc3ccccc3)ccc2c1)NCc1ccc(OP(=O)(O)O)c(OP(=O)(O)O)c1` [Stafib-1], the remaining activity at 10 µM worked out at 65.3 ± 42.8% in assay [1] (primary screen, 10 μM); 57.9 ± 22.2% in assay [2] (primary screen, 10 μM); 88.5 ± 5.5% in assay [3] (primary screen, 10 μM); 79.7 ± 9.4% in assay [4] (primary screen, 10 μM); 96.9 ± 12% in assay [6] (primary screen, 10 μM). The “percent of DMSO vehicle control” value in assay [5] is reported as 61.1±7.3%.

As for `CC(C)(C)[C@H](NC(=O)/C=C/c1ccc(OP(=O)(O)O)cc1)C(=O)N1CCC[C@H]1C(=O)N(c1ccccc1)c1ccc(I)cc1` [STAT6-IN-3], the remaining activity at 10 µM in assay [1] (primary screen, 10 μM) was determined as 59.9 ± 42.5%; in assay [2] (primary screen, 10 μM) it was 81.2 ± 4.6%; in assay [3] (primary screen, 10 μM), 97.5 ± 15.9%; in assay [4] (primary screen, 10 μM) it was 89.5 ± 4.6%; in assay [6] (primary screen, 10 μM), 90.2 ± 12.1%. Also, the “percent of DMSO vehicle control” value in assay [5] was found to be 53.7±3.2%.
